In patent publication US12558369B2, “Compositions and methods of treating Fanconi Anemia” (Dana-Farber Cancer Institute, Inc., priority 2015, dated 2026):
Entries after “also recorded” stand apart in the source; their conditions may differ.

Tests used:
GM6914 = assay: MMC cell viability (CellTiterGlo) to identify IC90; assay type: cell-based, human; conditions: GM6914, MMC for 7 days
Method: FIG. 7. Identification of IC90 concentration of MMC on GM6914 and validation of genome wide RNAi screening for MMC resistance. • A) Identification of IC90 concentration of MMC on GM6914. Cells were treated with different doses of MMC for 7 days, and cell viability was measured using CellTiterGlo reagent. […] Cells were transduced with 6 pools of shRNA retrovirus libraries, and selected with puromycin for 48 h. Cells were then treated with MMC for 7 days, and resistant cells were harvested to re-assess their MMC sensitivity by treated with MMC for 3 days. Data shown represented cells transduced by pool #3, 5 and 6. • C) FANCA deficient fibroblast cells (GM6914) were evaluated for MMC sensitivity after shRNA mediated knockdown of SMAD3 and TP53. Survival was measured after 3 days exposure to indicated concentrations of MMC. […] Error bars represent s.e.m. • D) FANCD2 deficient fibroblast cells (PD20) were evaluated for MMC sensitivity after RNAi mediated knockdown of SMAD3 and TP53. Survival was measured after 3 days exposure to indicated concentrations of MMC. […]
(§1) For survival assays, cells were seeded at a density of 1×10^3 cells per well in 96-well plates. After 3-6 days of culture in indicated concentrations of MMC or post exposure of acetaldehyde, viability was assessed using CellTiterGlo reagent (Promega). […] Colonies were counted after crystal violet staining.

[1] = system: Lin− cells from WT and Fancd2−/− mice; assay: Bone marrow Lin− cell growth under TGF-β1; assay type: cell-based, mouse; conditions: TGF-β1 1 ng/mL; Ab 10 μg/mL or SD208 10 μM; 5 days
Method: (§2) (A) Expression of phospho-Smad2/3 proteins in HSPCs from WT and Fancd2−/− mice as detected by flow cytometric analysis. (B) Quantification of mean fluorescence intensity (MFI) of phospho-Smad2/3 staining by flow cytometric analysis shown in (A) in HSPCs from WT and Fancd2−/− mice. (C) Fancd2−/− HSPCs are more sensitive to TGF-β1 than WT HSPCs. Sorted Lin− cells from WT or Fancd2−/− mice were exposed to TGF-β1. After 5 days in culture, LSK cells were analyzed by flow cytometry and quantified. Data are shown after normalizing to untreated WT group. […] Sorted Lin− cells from WT and Fancd2−/− mice were exposed to TGF-β1 (1 ng/mL) with or without TGF-beta 1,2,3 Ab (10 μg/mL) or SD208 (10 μM), and viable cells were counted after 5 days in culture. Data shown are after normalizing to untreated WT group. Error bars represent mean±s.e.m. (F) Clonogenic assay of WT and Fancd2−/− HSPCs treated with TGF-β1, TGF-beta 1, 2, 3 Ab or SD208. […] Hematopoietic colonies were counted after 7-10 days in culture. […] (I) Representative FACS plots of LSK cells analyzed by flow cytometry for GFP expression after 5 days in vitro culture in stem cell culture medium. […] Luciferase activity was measured. (L) Binding of FANCD2 to SMAD1 promoter (region −2108 to −1950 bp) upon DNA damage as detected by ChIP assay using anti-FANCD2 antibody in corrected GM6914 (+FANCA) but not GM6914 (+Vector) fibroblast cells. […]

mouse fibroblast cells = assay: Immunoblot of Smad2 phosphorylation; assay type: cell-based; conditions: immunoblot of lysates
U2OS cells [2] = assay: NHEJ reporter assay; assay type: cell-based, human; conditions: template reporter assay
U2OS cells [3] = assay: Immunoblot of DNA-PK phosphorylation; assay type: cell-based, human
[4] = system: EUFA316 (FA-G fibroblasts); assay: MMC sensitivity survival assay of FA cells with TGFβ pathway inhibitors; assay type: cell-based, human
Method: (§3) FIG. 1. TGFβ pathway disruption enhances FA cellular growth. • A) RIGER P value analysis to identify top candidate genes. • B) Clonogenic survival of GM6914 (FA-A fibroblasts) and FANCA-corrected GM6914 cells after shRNA mediated knockdown of SMAD3. Cells were treated with increasing doses of MMC and plated for 10-12 days. The average of two experiments is presented; error bars represent s.e.m.
(§4) For survival assays, cells were seeded at a density of 1×10^3 cells per well in 96-well plates. After 72 hours of culture in indicated concentrations of MMC or post exposure of acetaldehyde, viability was assessed using CellTiterGlo reagent (Promega). In order to assess clonogenicity, cells were seeded at a low density (500-1000 cells per well) in 6-well plates and allowed to form colonies. The cells were then fixed in methanol/20% acetic acid and stained with 1% crystal violet. Colony formation was assessed by solubilizing crystal violet stain with methanol and quantifying UV absorbance for each condition.
as §4, with “3-6 days” for “72 hours”, “Colonies were counted after” for “Colony formation was assessed by solubilizing”, “staining.” for “stain with methanol and quantifying UV absorbance for each condition.”

Fancd2−/− HSPCs = assay: Clonogenic assay of HSPCs in methylcellulose; assay type: cell-based, mouse; conditions: TGF-β1 1 ng/mL, Ab 10 μg/mL or SD208 10 μM; colonies after 7-10 days
Method: as §2

[5] = system: GM6914 cells (FA-A cells); assay: Traffic light reporter (TLR) assay of HR and NHEJ; assay type: cell-based, human; conditions: GM6914, 10 μM SD208, 72 hrs
From the text: FIG. 17. TGF-β pathway Inhibition Increases HR and Decreases NHEJ activities in FA Cells. • (A, B) TGF-β pathway inhibition affects the choice of HR versus NHEJ pathways in repairing individual DNA breakpoints in FA cells. GM6914 cells (FA-A cells) or FANCA corrected GM6914 cells with shControl or shSMAD3 were used to generate traffic light reporter system, and then were infected with GFP-donor template and I-SceI lentivirus to generate DNA breakpoints. Quantification analysis of HR and NHEJ repair events is shown. (B) The ratio of HR to NHEJ activity based on the data in (A). […] Quantification of HR and NHEJ repair events in GM6914 cells exposed to SD-208 for 72 hrs as detected by traffic light reporter assay described in (A). […] HR assay was measured in U2OS cells with DR-GFP reporter after transduction with lentivirus encoding indicated shRNAs. The representative of three independent experiments is presented. […] (F, G) TGF-β pathway inhibition promotes HR activity in FA cells. Representative images (F) and quantification (G) of RAD51 foci in MMC treated GM6914 (FA-A) cells or FANCA corrected GM6914 cells with shRNA-mediated knockdown of SMAD3. […] One hundred cells were scored for RAD51 foci. […]
the presence of 8 μg/mL polybrene. […] Genome engineering events were analyzed by flow cytometry at 72 hours after transduction. NHEJ is represented by mCherry fluorescence, and HR by GFP fluorescence.

EUFA316 = assay: Acetaldehyde sensitivity survival assay; assay type: cell-based, human; conditions: EUFA316 cells
Method: as §3, §4, §1

Structure (SMILES)	IC90 (GM6914)	inhibitory effect of TGF-β1 on bone marrow Lin− cell growth [1]	phosphorylation of Smad2 (mouse fibroblast cells)	NHEJ activity (U2OS cells [2])	phosphorylation of DNA-PK (U2OS cells [3])	FA cells survival in the presence of MMC ([4]; FA cell lines with inhibitor)	cytotoxicity of corrected FA cells ([4]; corrected FA cells)	clonogenic ability of Fancd2−/− HSPCs (Fancd2−/− HSPCs)	HR activity / HR events [5]	NHEJ events [5]	survival in the presence of acetaldehyde (EUFA316)
CO[C@@]12[C@H](COC(N)=O)C3=C(C(=O)C(C)=C(N)C3=O)N1C[C@@H]1N[C@@H]12 [MMC, mitomycin C]	0.019 µM										
Fc1ccc(Cl)cc1-c1nc(Nc2ccncc2)c2nccnc2n1 [SD208]		rescues inhibitory effect of TGF-β1	reduced phosphorylation of Smad2	decreased NHEJ	blocks phosphorylation of DNA-PK	improved FA cells survival in the presence of MMC	do not significantly alter cytotoxicity of corrected FA cells	markedly enhanced the clonogenic ability	increased HR activity; also recorded: increases HR events	decreases NHEJ events	significantly promoted survival
